Laboratory results taken from patent US20240425517A1, “NOVEL COMPOUND FOR DEGRADATION OF TARGET PROTEIN OR POLYPEPTIDE BY POLYUBIQUITINATION” (PRAZER THERAPEUTICS INC., priority 2021, published 2024).

Biological target: T1, ubiquitin (Homo sapiens, UniProt P0CG47)
T1 construct: mixed with 1 mg/mL of ubiquitin
Test: Direct binding to ubiquitin: in vitro ubiquitination and intact protein analysis (UPLC-Q/TOF or MALDI-TOF)
Conditions: 10 μM, ubiquitin 1 mg/mL, E1, E2, E3 (ITCH/AIP4), ATP, 37° C., 4 hours
Experimental: To confirm that the compounds represented by Formulae V to VIII of the present invention directly bind to ubiquitin, in vitro ubiquitination assay was performed, and then the compounds of Preparation Examples I′ to IV″′ (BRD4 degraders) bound to ubiquitin, a BRD4 inhibitor, and ubiquitin were detected using intact protein analysis. The intact protein analysis is a method capable of measuring a compound bound to a protein by mass spectrometry without protease pretreatment. Experiments were performed using ITCH/AIP4 proteins (manufacturer: R&D System), which are E3 ligases, in order to bind ubiquitin and BRD4 degraders in vitro.
Specifically, 10 μM of each degrader was mixed with 1 mg/mL of ubiquitin, 10× buffer, 5 nM of E1, 100 nM of E2, 14 nM of E3, and 1 mM of ATP to react in a 37° C. incubator for 4 hours. To the reacted samples, acetonitrile and formic acid were added for UPLC-Q/TOF or MALDI-TOF analysis, resulting in the final concentrations of 50% acetonitrile and 0.1% formic acid, respectively. For UPLC-Q/TOF, a Micromass Q-TOF micro Synapt High-definition mass spectrometer equipped with ESI was used to perform the mass spectrometry. […] The experimental results were analyzed using TOF/TOF™ Series Explorer™ software version 4.0.

## Cc1sc2c(c1C)C(c1ccc(Cl)cc1)=N[C@@H](CC(=O)OC(C)(C)C)c1nnc(C)n1-2 [JQ1]
  molecular weight peak of ubiquitin bound to the compound (intact protein analysis, FIGS. 3A-3J): not detected
